Laboratory results from US5583142A, “Analgesic and nootropic drugs” (priority 1992, dated 1996).

Format: in vivo, mouse
Details: for ANALGESIC ACTIVITY (degree of analgesia, latency on hot plate): max. dose not affecting mice behaviour
Description: The analgesic action was detected in mouse, rat, guinea pig and dog. The mouse was subjected to hot plate and writhing tests; the rat to tail-flick and paw-pressure tests; the guinea pig to paw-pressure test only; the dog to the test described by Vainio et al. [J. Vet. Pharmacol. Ther., 12, 225-231 (1989)] using an electric stimulation. Consequently, the claimed compounds were tested with pain being induced by stimuli of different nature: thermal (hot plate and tail flick), chemical (writhing by acetic acid), mechanical (paw pressure) and electrical (cutaneous stimulation).
Potency, efficacy and toxicity of SM21, PG9 and SM32 in comparison with
four principal reference analgesic drugs tested in mouse. As analgesic

SMILES | ANALGESIC ACTIVITY (degree of analgesia, latency on hot plate) | dose required to obtain analgesia equivalent to that of the claimed compounds (mouse, in μmoles/kg)
CC(Oc1ccc(Cl)cc1)C(=O)OC1CC2CCC(C1)N2C (single isomer, unassigned) [(R) ET142 (+)] | +++ (Latency under or equal to 35" +++-) | 
CC(Oc1ccc(F)cc1)C(=O)OC1CC2CCC(C1)N2C (single isomer, unassigned) [(R) NR100 (+)] | ++++ (Latency above 35" ++++-) | 
CCC(Sc1ccc(Cl)cc1)C(=O)OC1CC2CCC(C1)N2C (single isomer, unassigned) [(R) SM35 (+), 3α-Tropanyl 2-(p-chlorophenylthio)butyrate] | +++ (Latency under or equal to 35" +++-) | 
CC(Sc1ccc(Cl)cc1)C(=O)OC1CC2CCC(C1)N2C (single isomer, unassigned) [(R) SS20 (+)] | +++ (Latency under or equal to 35" +++-) | 
CC(Oc1ccc(Cl)cc1)C(=O)OC1CC2CCC(C1)N2C (single isomer, unassigned) [(S) ET142 (-)] | ++ (Latency under or equal to 30" ++-) | 
CC(Oc1ccc(F)cc1)C(=O)OC1CC2CCC(C1)N2C (single isomer, unassigned) [(S) NR100 (-)] | +++ (Latency under or equal to 35" +++-) | 
CCC(Sc1ccc(Cl)cc1)C(=O)OC1CC2CCC(C1)N2C (single isomer, unassigned) [(S) SM35 (-), 3α-Tropanyl 2-(p-chlorophenylthio)butyrate] | ++ (Latency under or equal to 30" ++-) | 
CC(Sc1ccc(Cl)cc1)C(=O)OC1CC2CCC(C1)N2C (single isomer, unassigned) [(S) SS20 (+)] | ++ (Latency under or equal to 30" ++-) | 
CC(Nc1ccc(Cl)cc1)C(=O)OC1CC2CCC(C1)N2C (stereo not drawn) [AC5, 3α-Tropanyl 2-(p-chlorophenylamino)-propionate] | + (Latency under or equal to 25" +-) | 
CC(C(=O)O[C@H]1C[C@H]2CC[C@@H](C1)N2C)N(C)c1ccc(Cl)cc1 (stereo partly drawn) [AC6, 3α-Tropanyl 2-[N-methyl-N(p-chlorophenyl)amino]-propionate] | ++ (Latency under or equal to 30" ++-) | 
CC(C)C(Sc1ccc(Cl)cc1)C(=O)OC1CC2CCC(C1)N2C (centres unmarked) [AC11] | + (Latency under or equal to 25" +-) | 
CCC(C(=O)OC1CC2CCC(C1)N2C)N(C)c1ccc(Cl)cc1 (centres unmarked) [AC13] | ++++ (Latency above 35" ++++-) | 
CCC(Oc1ccc(F)cc1)C(=O)OC1CC2CCC(C1)N2C (centres unmarked) [AC15] | ++++ (Latency above 35" ++++-) | 
CCC(Oc1ccc2cc(Br)ccc2c1)C(=O)OC1CC2CCC(C1)N2C (centres unmarked) [AC31] | + (Latency under or equal to 25" +-) | 
CC(Oc1ccc2ccccc2c1)C(=O)O[C@H]1C[C@H]2CC[C@@H](C1)N2C (stereo partly drawn) [AC-19, 3α-Tropanyl 2-(β-naphthoxy)propionate] | +++ (Latency under or equal to 35" +++-) | 
CCN1C2CCC1CC(OC(=O)C(C)Oc1ccc(Cl)cc1)C2 (centres unmarked) [GC9] | ++ (Latency under or equal to 30" ++-) | 
CCC(Oc1ccc(Cl)cc1)C(=O)O[C@H]1C[C@H]2CC[C@@H](C1)N2CC (stereo partly drawn) [GC-11, N-Ethyl-3α-nortropanyl 2-(p-chlopophenoxy)butyrate] | ++ (Latency under or equal to 30" ++-) | 
CN1CC[C@]23c4c5ccc(O)c4O[C@H]2[C@@H](O)C=C[C@H]3[C@H]1C5.Cl [Morphine HCl, reference compound] |  | three times lower
CSc1ccc(OC(C)C(=O)O[C@H]2C[C@H]3CC[C@@H](C2)N3C)cc1 (some centres unmarked) [NR95] | + (Latency under or equal to 25" +-) | 
CC(Oc1ccc(F)cc1)C(=O)O[C@H]1C[C@H]2CC[C@@H](C1)N2C (some centres unmarked) [NR100] | ++++ (Latency above 35" ++++-) | 
CC(C(=O)OC1CC2CCC(C1)N2C)c1ccc([N+](=O)[O-])cc1 (centres unmarked) [PG4] | + (Latency under or equal to 25" +-) | 

SMILES | ANALGESIC ACTIVITY (degree of analgesia, latency on hot plate) | dose required to obtain analgesia equivalent to that of the claimed compounds (mouse, in μmoles/kg)
CC(C(=O)OC1CC2CCC(C1)N2C)c1ccc(N)cc1 (centres unmarked) [PG5] | + (Latency under or equal to 25" +-) | 
CC(C(=O)OC1CC2CCC(C1)N2C)c1cccc(Cl)c1 (centres unmarked) [PG13] | +++ (Latency under or equal to 35" +++-) | 
CC(C(=O)OC1CC2CCC(C1)N2C)c1ccccc1Cl (centres unmarked) [PG14] | +++ (Latency under or equal to 35" +++-) | 
CC(C)Cc1ccc(C(C)C(=O)OC2CC3CCC(C2)N3C)cc1 (centres unmarked) [PG16] | + (Latency under or equal to 25" +-) | 
COc1ccc(C(C)C(=O)OC2CC3CCC(C2)N3C)cc1 (centres unmarked) [PG18] | + (Latency under or equal to 25" +-) | 
CC(C(=O)OC1CC2CCC(C1)N2C)c1ccc(F)cc1 (centres unmarked) [PG21] | +++ (Latency under or equal to 35" +++-) | 
CC(C(=O)OC1CC2CCC(C1)N2C)c1ccccc1Br (centres unmarked) [PG23] | ++ (Latency under or equal to 30" ++-) | 
CCC(C(=O)OC1CC2CCC(C1)N2C)c1ccc(Br)cc1 (centres unmarked) [PG24] | +++ (Latency under or equal to 35" +++-) | 
CC(C(=O)O[C@H]1C[C@H]2CC[C@@H](C1)N2C)c1ccc(Cl)cc1 (stereo partly drawn) [PG-8, 3α-Tropanyl 2-(p-chlorophenyl)-propionate] | +++ (Latency under or equal to 35" +++-) | 
CC(Oc1cccc(Cl)c1)C(=O)OC1CC2CCC(C1)N2C (centres unmarked) [SM12] | ++ (Latency under or equal to 30" ++-) | 
CC(Oc1ccc(Br)cc1)C(=O)O[C@H]1C[C@H]2CC[C@@H](C1)N2C (some centres unmarked) [SM15] | ++ (Latency under or equal to 30" ++-) | 
CC(Sc1ccc(Br)cc1)C(=O)OC1CC2CCC(C1)N2C (centres unmarked) [SM17] | ++++ (Latency above 35" ++++-) | 
CC(Oc1ccc(C(F)(F)F)cc1)C(=O)O[C@H]1C[C@H]2CC[C@@H](C1)N2C (some centres unmarked) [SM19] | + (Latency under or equal to 25" +-) | 
CC(Sc1ccc(F)cc1)C(=O)OC1CC2CCC(C1)N2C (centres unmarked) [SM23] | ++ (Latency under or equal to 30" ++-) | 
CN1[C@@H]2CC[C@H]1C[C@@H](OC(=O)C(C)(C)Oc1ccc(Cl)cc1)C2 [SM-25, 3α-Tropanyl 2-(p-chlorophenoxy)-isobutyrate] | ++ (Latency under or equal to 30" ++-) | 
CCC(Sc1ccc(Cl)cc1)C(=O)O[C@H]1C[C@H]2CC[C@@H](C1)N2C (stereo partly drawn) [SM-35, 3α-Tropanyl 2-(p-chlorophenylthio)-butyrate] | +++ (Latency under or equal to 35" +++-) | 
CC(Oc1ccc(Cl)c(Cl)c1)C(=O)OC1CC2CCC(C1)N2C (centres unmarked) [SS10] | + (Latency under or equal to 25" +-) | 
CC(Sc1ccccc1)C(=O)OC1CC2CCC(C1)N2C (centres unmarked) [SS12] | ++ (Latency under or equal to 30" ++-) | 
Cc1ccc(SC(C)C(=O)OC2CC3CCC(C2)N3C)cc1 (centres unmarked) [SS21] | + (Latency under or equal to 25" +-) | 
CC(Oc1ccc(C#N)cc1)C(=O)O[C@H]1C[C@H]2CC[C@@H](C1)N2C (some centres unmarked) [SS26] | ++ (Latency under or equal to 30" ++-) | 
